Experimental data reported in patent US20020193425A1, “Cancer chemopreventative compounds and compositions and methods of treating cancers” (priority 2001, published 2002).
≈ marks a conversion by molar mass, not a printed value.

Experiments:
[1] = Withdrawal assays, growth and differentiation of HL-60 cells; assay type: cell-based, human; conditions: human, HL-60 cells
Method: The irreversibility of brusatol effects on growth and differentiation of HL-60 cells was tested using withdrawal assays during a 4-day experiment.
The assay lasted for 4 days (96 h) and then, cells were analyzed for viability and differentiation markers. […] Results are shown as the mean of duplicate samples (±standard deviation).

[2] = system: U937 cells; assay: Membrane phenotype, cell surface antigen by flow cytometry; assay type: cell-based; conditions: Brusatol 12.5 ng/ml, 4-day protocol
Method: (§1) Cell lines were tested using a 4-day incubation protocol, unless otherwise specified.
(§2) 3) Determination of cell surface antigen by flow cytometry. Cells (10^6) were washed with PBS and then incubated for 30 min at room temperature with respective monoclonal antibodies, washed with 20 volumes of diluent (PBS with 0.1% sodium azide and 1% BSA), and resuspended in 0.5 ml of fresh diluent for evaluation. Necrotic cells were excluded from the analysis by propidium iodide (PI) staining. The following mAbs (Sigma, St. Louis, Mo.) were used to assess the maturation level of myeloid cell lines: antiCD15 (Leu M1), antiCD-11b (OKM1), antiCD14 and antiCD13. The following mAbs (Sigma, St. Louis, Mo.) were used to assess the maturation level of lymphocytic cell lines: antiCD20, antiHLA-DR and antikappa light chain.
(§3) Cells were induced to differentiate with the indicated concentrations of brusatol using a 4-day protocol and then analyzed for membrane markers of differentiation as described under “Materials and methods”. Results are expressed as the specific mean fluorescence intensity (ratio of antigen antibody flourescence over isotype antibody fluorescence), and represents the mean of two independent studies.

[3] = system: RS4;11 cells; assay: as above; assay type: cell-based; conditions: Brusatol 25 ng/ml, 4-day protocol
Method: as §1, §2, §3

[4] = system: NB4 cells; assay: as above; assay type: cell-based; conditions: Brusatol 10 ng/ml, 4-day protocol
Method: as §1, §2, §3

[5] = system: K562 cells; assay: as above; assay type: cell-based; conditions: Brusatol 25 ng/ml, 4-day protocol
Method: as §1, §2, §3

[6] = system: BV173; assay: as above; assay type: cell-based; conditions: 4-day protocol
Method: as §1, §2, §3

[7] = system: Kasumi-1; assay: as above; assay type: cell-based; conditions: 4-day protocol
Method: as §1, §2, §3

[8] = Cytotoxicity, viability by Trypan blue exclusion; conditions: human, Reh cells, Cytotoxicity (IC50, ng/ml), four days
Method: (§6) All cell lines were maintained in suspension culture using RPMI 1640 medium supplemented with 10% heat-inactivated fetal bovine serum, 100 units of penicillin/ml and 100 μg of streptomycin/ml at 37° C. in a humidified atmosphere of 5% CO2 in air.
(§7) Cellular viability was monitored by Trypan blue exclusion.
(§8) ^aViability was determined by Trypan blue exclusion in duplicate samples. […] Results are expressed as median inhibitory cell concentrations of two independent experiments (±standard deviations).

[9] = system: Reh; assay: Cytotoxicity, viability by Trypan blue exclusion; conditions: four days
Method: as §6, §7, §8

[10] = system: K562; assay: NSE expression (monocyte marker); assay type: cell-based; conditions: 4 days
Method: as §1
(§4) 2) NBT/NSE/SE. Evaluation of NBT reduction was used to assess the ability of sample-treated cells to produce superoxide when challenged with TPA. A 1:1 (v/v) mixture of a cell suspension (10^6 cells) and TPA/NBT solution (2 mg/ml NBT and 1 μg/ml TPA in phosphate buffer saline (PBS)) was incubated for 1 h at 37° C. Then, cells were smeared on glass slides, and counterstained with 0.3% (w/v) safranin O in methanol. Positive cells reduce NBT yielding intracellular black-blue formazan deposits. NSE/SE are monocytic/granulocytic esterases that can be visualized by cytochemical staining using commercially available kits (α-Naphthyl Acetate Esterase and Naphthol As-D Chloroacetate Esterase kits, Sigma Chemical Co., St. Louis, Mo.). Positive-stained cells were quantified by microscopic examination of >200 cells. Results were expressed as a percentage of positive cells.
(§5) Concentration-dependent effect of brusatol on: (a) NBT-reduction (monocyte/granulocyte marker) of HL-60, K562, NB4, U937, and BV173 and (b) NSE expression (monocyte marker) in K562, Kasumi-1, NB4, and BV173 cells, respectively. Data points are the mean of duplicate samples.

[11] = system: NB4; assay: NSE expression (monocyte marker); assay type: cell-based; conditions: 4 days
Method: as §1, §4, §5

[12] = system: BV173; assay: NSE expression (monocyte marker); assay type: cell-based; conditions: 4 days
Method: as §1, §4, §5

[13] = system: Kasumi-1; assay: NSE expression (monocyte marker); assay type: cell-based; conditions: 4 days
Method: as §1, §4, §5

[14] = Cytotoxicity, viability by Trypan blue exclusion; conditions: human, K562 cells
Method: (§9) HL-60, K562, U937, Reh and Daudi cells were obtained from the American Type Culture Collection (Rockville, Md.). Kasumi-1, NB4, BV173, SUPB13, and RS4;11 cells were provided by the Section of Hematology/Oncology, University of Illinois College of Medicine, Chicago, Ill. All cell lines were maintained in suspension culture using RPMI 1640 medium supplemented with 10% heat-inactivated fetal bovine serum, 100 units of penicillin/ml and 100 μg of streptomycin/ml at 37° C. in a humidified atmosphere of 5% CO2 in air. All cells were routinely tested for mycoplasma contamination.
Cellular viability was monitored by Trypan blue exclusion. Inhibition of [3H]thymidine incorporation into DNA was determined to assess the level of cell proliferation as well as DNA synthesis inhibition. Cells were treated with test samples for four days and then placed into 96-well plates (100 μl) and treated with [3H]thymidine (0.5 μCi/ml, 65 Ci/mmol) for 18 h at 37° C. in a 5% CO2 incubator. Cells then were collected on glass fiber filters using a TOMTEC Harvester 96®. The filters were counted using a Microbeta™ liquid scintillation counter (Wallac, Turku, Finland) with scintillation fluid. Finally, the percentage of [3H]thymidine incorporation per 10^6 cells was calculated by dividing the dpm of sample-treated cells by the dpm of DMSO-treated cells.
as §8

[15] = system: SUPB13; assay: Cytotoxicity, viability by Trypan blue exclusion; conditions: four days
Method: as §6, §7, §8

[16] = Cytotoxicity, viability by Trypan blue exclusion; conditions: human, SUPB13 cells, Cytotoxicity (IC50, ng/ml), four days
Method: as §6, §7, §8

[17] = Cytotoxicity, viability by Trypan blue exclusion; conditions: human, U937 cells, Cytotoxicity (IC50, ng/ml), four days
Method: as §9
(§10) Cellular viability was monitored by Trypan blue exclusion. Inhibition of [3H]thymidine incorporation into DNA was determined to assess the level of cell proliferation as well as DNA synthesis inhibition. […] The filters were counted using a Microbeta™ liquid scintillation counter (Wallac, Turku, Finland) with scintillation fluid. Finally, the percentage of [3H]thymidine incorporation per 10^6 cells was calculated by dividing the dpm of sample-treated cells by the dpm of DMSO-treated cells.
as §8

[18] = system: U937; assay: Cytotoxicity, viability by Trypan blue exclusion; conditions: four days
Method: as §9, §10, §8

[19] = Cytotoxicity, viability by Trypan blue exclusion; conditions: human, RS4;11 cells, Cytotoxicity (IC50, ng/ml), four days
Method: as §6, §7, §8

[20] = system: RS4;11; assay: Cytotoxicity, viability by Trypan blue exclusion; conditions: four days
Method: as §6, §7, §8

[21] = system: HL-60 cells; assay: Membrane phenotype, cell surface antigen by flow cytometry; assay type: cell-based, human; conditions: Brusatol 25 ng/ml, 4-day protocol
Method: as §1, §2, §3

[22] = system: patients with various types of solid tumors; conditions: phase I clinical trials; cited from earlier work
[23] = in vitro; conditions: human
Method: Human blood (20 ml) was collected in heparinized sterile tubes and white blood cells were separated using Ficoll reagent (8 ml/5 ml blood diluted in 15 ml Hank's buffered solution). After centrifugation at low speed (1500 rpm) for 30 min, the white coat was removed and washed 3-times with Hank's buffered solution. The cell pellet was resuspended in RPMI 1640 medium supplemented with 10% FBS. This preparation contained >90% lymphocytes and <5% monocytes, as determined by Wright-Giemsa staining.
as §7, §8

[24] = system: metastatic breast cancer and malignant melanoma; conditions: phase II trials, adult patients with metastatic breast cancer and malignant melanoma; cited from earlier work

COC(=O)[C@@]12OC[C@]34[C@H]([C@@H](O)[C@@H]1O)[C@@]1(C)CC(=O)C(O)=C(C)[C@@H]1C[C@H]3OC(=O)[C@H](OC(=O)C=C(C)C)[C@@H]24 [compound 1, brusatol]
viability at 48 h, 12.5 ng/ml ([1]; 12.5 ng/ml, 48 h exposure): > 80%
viability at 72 h, 12.5 ng/ml ([1]; 12.5 ng/ml, 72 h exposure): 56%
viability at 96 h, 12.5 ng/ml ([1]; 12.5 ng/ml, 96 h exposure): 45%
selectivity ratio ([1]; 2-day protocol versus 4-day protocol, read-out: increase in selectivity (differentiation vs cytotoxicity)): 10
IC50 at 4 days ([1]; 4-day protocol, read-out: cytotoxic IC50): 0.025 µg/mL (≈ 0.048 µM)
IC50 at 2 days ([1]; 2 day-protocol, read-out: cytotoxic IC50): 0.25 µg/mL (≈ 0.48 µM)
CD11b, specific mean fluorescence intensity [2]: 2.5 ± 0.2
CD13, specific mean fluorescence intensity [2]: 55.7 ± 1.1
CD14, specific mean fluorescence intensity [2]: 9.6
CD15, specific mean fluorescence intensity [2]: 28.5 ± 4.3
CD11b, specific mean fluorescence intensity [3]: 1.2 ± 0.1
CD13, specific mean fluorescence intensity [3]: 1.3 ± 0.2
CD15, specific mean fluorescence intensity [3]: 151.9 ± 42.1
CD11b, specific mean fluorescence intensity [4]: 1.2 ± 0.5
CD13, specific mean fluorescence intensity [4]: 156.1 ± 54.3
CD14, specific mean fluorescence intensity [4]: 1.3
CD15, specific mean fluorescence intensity [4]: 18.5 ± 0.4
CD11b, specific mean fluorescence intensity [5]: 1.0 ± 0.1
CD13, specific mean fluorescence intensity [5]: 1.4 ± 0.2
CD14, specific mean fluorescence intensity [5]: 1.0
CD15, specific mean fluorescence intensity [5]: 4.6 ± 1.1
membrane markers of differentiation, change between control and treated cells [6]: did not show any changes
membrane markers of differentiation, change between control and treated cells [7]: did not show any changes
IC50 at 4 days [8]: 0.05 to 0.1 µg/mL (≈ 0.0961 to 0.192 µM)
Cytotoxicity (IC50, ng/ml) [9]: 100 ± 5.4 ng/mL
upregulated expression of NSE [10]: approximately 50%
upregulated expression of NSE [11]: approximately 50%
upregulated expression of NSE [12]: approximately 35%
upregulated expression of NSE [13]: approximately 50%
IC50 at 4 days [14]: > 0.1 µg/mL
viability at 4 days, 100 ng/ml [14]: ~90%
Cytotoxicity (IC50, ng/ml) [15]: 20 ± 1.2 ng/mL
IC50 at 4 days [16]: < 0.025 µg/mL
IC50 at 4 days [17]: < 0.025 µg/mL
Cytotoxicity (IC50, ng/ml) [18]: 12.5 ± 1.1 ng/mL
IC50 at 4 days [19]: < 0.025 µg/mL
Cytotoxicity (IC50, ng/ml) [20]: 25 ± 2 ng/mL
CD11b, specific mean fluorescence intensity [21]: 2.2 ± 0.5
CD13, specific mean fluorescence intensity [21]: 266.1 ± 55.7
CD14, specific mean fluorescence intensity [21]: 1.0
CD15, specific mean fluorescence intensity [21]: 177.1 ± 8.7

COC(=O)[C@@]12OC[C@]34[C@H]([C@@H](O)[C@@H]1O)[C@@]1(C)CC(=O)C(O)=C(C)[C@@H]1C[C@H]3OC(=O)[C@H](OC(=O)/C=C(\C)C(C)C)[C@@H]24 [compound 2, bruceantin]
hematologic toxicity [22]: moderate to insignificant
IC50 at 3 days [23]: > 0.05 µg/mL
objective tumor regressions [24]: No objective tumor regressions were observed
